The values below come from patent publication US20240277738A1, “GAMETOCYTOCIDAL COMPOUND” (Eberhard Karls Universität Tübingen Medizinische Fakultãt, priority 2021, published 2024).

Test [1] concerns Plasmodium falciparum strain 3D7. Kind of test: Growth inhibition assay with asexual Plasmodium falciparum (HRP2 ELISA). The class given is cell-based. The conditions noted are these: for Fold differences, 3 day-assays: IC50 3D7 versus A1-H.1, 3 days; for Fold differences, 6 day-assays: IC50 3D7 versus A1-H.1, 6 days.
The subject of a further test is HepG2 cells. Kind of test: Cytotoxicity, neutral red assay. The class given is cell-based, human. As to conditions: for IC50: read-out: IC50 (μM) in HepG2 cells; for SI 3D7: selectivity index HepG2 versus P. falciparum 3D7; for SI A1-H.1: selectivity index HepG2 versus P. knowlesi A1-H.1.
The subject of test [2] is Plasmodium falciparum Dd2 (multidrug-resistant). Kind of test: Growth inhibition assay, resistant strain Dd2. The class given is cell-based. As to conditions: read-out: IC50, Dd2.
The subject of test [3] is Plasmodium falciparum K1 (multidrug-resistant). In words: Growth inhibition assay, resistant strain K1. The class given is cell-based. As to conditions: read-out: IC50, K1.
Test [4] concerns Plasmodium falciparum 7G8 (chloroquine resistant). In words: Growth inhibition assay, resistant strain 7G8. The class given is cell-based. The conditions noted are these: read-out: IC50, 7G8.
Test [5] concerns mature (stage IV-V) Plasmodium falciparum gametocytes (NF54). In words: In vitro activity against mature gametocytes (ATP production, BacTiterGlo). The class given is cell-based. As to conditions: 48 h.
The test system of test [6] is Plasmodium falciparum strain 3D7. Kind of test: Apicoplast as target: growth inhibition with and without IPP supplementation. The class given is cell-based. The conditions noted are these: 3D7, 6 days.
For test [7] the test system is unchanged. In words: Ionophoric activity assay: growth inhibition with KCl or MgCl2 supplementation. The class given is cell-based.
A further test deals with Mycobacterium bovis. The conditions noted are these: cited from earlier work.
The test system of test [8] is Plasmodium falciparum 3D7 and Dd2 asexual stages. Kind of test: Thin blood smear microscopy (Giemsa). As to conditions: 1 nM for 6 h.
Experimental: Then, thin blood smears were prepared, fixed in 100% methanol for 10 seconds, and stained with Giemsa (Merck) solution (5%) for 20 minutes. The slides were washed and observed under a Leica DMBL microscope, and pictures were taken using a ProgRes C10 camera and software (Jenoptik), at 100× magnification.
Setting [9] is: Plasmodium falciparum, 3D7, 72 h, read-out: IC50, 3 day-assays, 3D7.
Setting [10] is: Plasmodium falciparum, 3D7, 144 h, read-out: IC50, 6 day-assays, 3D7.
The mark [11] stands for this setting: Plasmodium falciparum, 72 h, P. falciparum 3D7, 3 days of incubation, read-out: IC50, 3 day-assays, 3D7.
Setting [12] is: Plasmodium falciparum, 144 h, P. falciparum 3D7, 6 days of incubation, read-out: IC50, 6 day-assays, 3D7.
Setting [13] is: Plasmodium falciparum, NF54, stage IV and V gametocytes.

The structures appear in SMILES notation. Where a name gives a salt, the structure may show the parent alone. Read-outs that look alike come from different tables or passages of the source.

On to `CC(C)[C@@H](N)C(=O)O[C@H](C)[C@@H]1C/C=C\CC[C@H](O)C(C)(C)[C@@H]2CC[C@@H](C)[C@@]3(O2)O[B-]24O[C@@H](C(=O)O1)[C@]1(O[C@@H](CC[C@H]1C)C(C)(C)[C@H](O)CCC[C@@H]1C[C@H](OC(=O)[C@@H]3O2)[C@@H](C)O1)O4.[H+]` [Boromycin], for which the half-maximal inhibitory concentration (IC50) was 0.0009 ± 0.0001 µM in test [1] (3D7, 3 days of incubation, comparator for resistant strains, read-out: IC50, 3D7 (Table 4)); 0.0009 ± 0.0001 µM in [1] (P. falciparum 3D7, 3 days of incubation, read-out: IC50, 3 day-assays, 3D7); 1250 ± 230 µM in the test with HepG2 cells (HepG2, 24 hours drug incubation, neutral red); 0.0006 ± 0.0004 µM in test [2] (Dd2, 3 days of incubation); 0.0007 ± 0.0001 µM in test [3] (K1, 3 days of incubation); 0.0004 ± 7e-05 µM in test [4] (7G8, 3 days of incubation). The IC50 was determined as 0.0085 ± 0.0036 µM in test [5] (stage IV and V gametocytes); 0.0014 µM in test [6] (supplemented with IPP, read-out: IC50, IPP-supplemented); 0.0009 µM in test [6] (without IPP, read-out: IC50, control without IPP); 2.1 ± 0.2 nM in [7] (3D7, 3 days, KCl 220 μg/ml, read-out: IC50, KCl supplemented); 0.2 nM in [7] (3D7, 3 days, MgCl2 220 μg/ml, read-out: IC50, MgCl2 supplemented); 0.7 ± 0.1 nM in [7] (3D7, 3 days, no supplementation, read-out: IC50 (in nM) control). In addition, the “Fold differences, 3 day-assays” value in [1] is given as 0.15. Besides, the “Fold differences, 6 day-assays” value in test [1] came out at 0.29. The “selectivity index (SI)” value with HepG2 cells (HepG2 versus Plasmodium) is listed as “higher than 200,000”. The “SI 3D7” value in the test on HepG2 cells is reported as 1,388,000. For the same compound, the “SI A1-H.1” value with HepG2 cells is listed as 211,864. The “increase of IC50 by supplementation of KCl” value in test [7] (KCl at 220 μg/mL versus control) came to 3 fold. Besides, in the test on Mycobacterium bovis (KCl 20 mg/mL), the “boromycin activity with external KCl” value is recorded as 10%. Besides, the “boromycin activity without added KCl” value in the test with Mycobacterium bovis (before addition of KCl) is 50%. Also, in test [8] (3D7), the “parasite morphology, strain 3D7” value was “pyknotic appearance”. Also, the “parasite morphology, strain Dd2” value in test [8] (Dd2) is “pyknotic appearance”.
In the case of `CCN(CC)CCCC(C)Nc1ccnc2cc(Cl)ccc12` (centres unmarked) [Chloroquine, Chloroquine diphosphate], in [1], the “Fold differences, 3 day-assays” value turned out to be 0.57. Further, in test [1], the “Fold differences, 6 day-assays” value came to 0.61. The IC50 came to 0.0084 ± 0.0049 µM in [1] (Plasmodium falciparum, 3D7, 72 h, read-out: IC50, 3D7 (Table 4)); 0.0084 ± 0.0049 µM in [1] (setting [9]); 0.0104 ± 0.0048 µM in test [1] (setting [10]); 153 µM in the test on HepG2 cells (Homo sapiens, HepG2, 24 h); 0.302 ± 0.119 µM in test [2] (Plasmodium falciparum, DD2, 72 h); 0.401 ± 0.0283 µM in test [3] (Plasmodium falciparum, K1, 72 h). Further, the IC50 in test [4] (Plasmodium falciparum, 7G8, 72 h) was found to be 0.304 ± 0.0182 µM; in [7] (Plasmodium falciparum, 3D7, 72 h, read-out: IC50 (in nM) control) it was 12 ± 0.8 nM; in test [7] (Plasmodium falciparum, 3D7, 72 h, read-out: IC50, KCl supplemented) it was 11.6 ± 1.4 nM; in [7] (Plasmodium falciparum, 3D7, 72 h, read-out: IC50, MgCl2 supplemented), 2.2 nM. Also, in the test on HepG2 cells, the “SI 3D7” value is 18,214. Moreover, in the test on HepG2 cells, the “SI A1-H.1” value is recorded as 10,551. In test [7], the “increase of IC50 by supplementation of KCl” value was “no difference was observed”.
Turning to `CN(C)[C@@H]1C(O)=C(C(N)=O)C(=O)[C@@]2(O)C(O)=C3C(=O)c4c(O)ccc(Cl)c4[C@@](C)(O)[C@H]3C[C@@H]12` [Chlortetracycline], the IC50 in test [1] (setting [11]) and in test [1] (setting [12]) was more than 18 µM in each case.
Consider `CN(C)[C@@H]1C(O)=C(C(N)=O)C(=O)[C@@]2(O)C(O)=C3C(=O)c4c(O)ccc(Cl)c4[C@@H](O)[C@H]3C[C@@H]12` [Demeclocycline], for which the “Fold differences, 6 day-assays” value in test [1] came to 1.06. Further, the IC50 in test [1] (setting [11]) is more than 18 µM; in [1] (setting [12]) it was 0.41 ± 0.165 µM.
`C[C@H]1c2cccc(O)c2C(=O)C2=C(O)[C@]3(O)C(=O)C(C(N)=O)=C(O)[C@@H](N(C)C)[C@@H]3[C@@H](O)[C@@H]21` [Doxycycline, Doxycycline Hyclate]: in test [1], the “Fold differences, 3 day-assays” value was found to be 5.1 and the “Fold differences, 6 day-assays” value is recorded as 0.58. Also, the IC50 in test [1] (setting [11]) is 9.58 ± 2.76 µM. In addition, the IC50 in test [1] (setting [12]) is 0.386 ± 0.292 µM.
As to `CN(C)[C@@H]1C(O)=C(C(N)=O)C(=O)[C@@]2(O)C(O)=C3C(=O)c4c(O)c(NC(=O)CN5CCCC5)cc(F)c4C[C@H]3C[C@@H]12` [Eravacycline], in test [1], the “Fold differences, 3 day-assays” value was 1.08 and the “Fold differences, 6 day-assays” value came to 0.4. Also, the IC50 in test [1] (setting [9]) was found to be 2.51 ± 0.55 µM. The IC50 in test [1] (setting [10]) is 0.0051 µM.
Take `CO[C@@H]1[C@@H](O[C@@H]2O[C@H](C)[C@@H](O[C@H]3C[C@@](C)(O)[C@@H](OC(=O)CC(C)C)[C@H](C)O3)[C@H](N(C)C)[C@H]2O)[C@@H](CC=O)C[C@@H](C)[C@@H](O)/C=C/C=C/C[C@@H](C)OC(=O)C[C@H]1OC(C)=O` [Josamycin]: in test [1], the “Fold differences, 6 day-assays” value came out at 2.3. In addition, the IC50 in [1] (setting [11]) was more than 18 µM; in test [1] (setting [12]) it was 0.388 ± 0.185 µM.
In the case of `CN(C)[C@@H]1C(O)=C(C(=O)NCNCCCC[C@H](N)C(=O)O)C(=O)[C@@]2(O)C(O)=C3C(=O)c4c(O)cccc4[C@@](C)(O)[C@H]3C[C@@H]12` [Lymecycline], the “Fold differences, 6 day-assays” value in [1] was determined as 1. Also, the IC50 in test [1] (setting [9]) is more than 18 µM; in test [1] (setting [10]), 1.12 ± 0.247 µM.
Take `C=C1c2c(Cl)ccc(O)c2C(=O)C2=C(O)[C@]3(O)C(=O)C(C(N)=O)=C(O)[C@@H](N(C)C)[C@@H]3[C@@H](O)[C@H]12` [Meclocycline]: the “Fold differences, 6 day-assays” value in [1] was determined as 0.19. In addition, the IC50 was more than 18 µM in test [1] (setting [9]) and 0.292 ± 0.041 µM in test [1] (setting [10]).
Regarding `C=C1c2cccc(O)c2C(=O)C2=C(O)[C@]3(O)C(=O)C(C(N)=O)=C(O)[C@@H](N(C)C)[C@@H]3[C@@H](O)[C@H]12` [Methacycline], the “Fold differences, 6 day-assays” value in test [1] amounted to 1.2. Moreover, the IC50 was more than 18 µM in test [1] (setting [11]) and 3.72 µM in test [1] (setting [12]).
For `CN(C)c1ccc(O)c2c1C[C@H]1C[C@H]3[C@H](N(C)C)C(O)=C(C(N)=O)C(=O)[C@@]3(O)C(O)=C1C2=O` [Minocycline, Minocycline hydrochloride], in [1], the “Fold differences, 3 day-assays” value is 3 and the “Fold differences, 6 day-assays” value worked out at 0.56. The half-maximal inhibitory concentration (IC50) in test [1] (setting [11]) is 9.39 ± 4.35 µM. Moreover, the 50% inhibitory concentration (IC50) in test [1] (setting [12]) worked out at 0.0835 ± 0.025 µM.
Turning to `CO[C@H]1C[C@H](O[C@H]2[C@H](C)[C@@H](O[C@@H]3O[C@H](C)C[C@H](N(C)C)[C@H]3O)[C@@H](C)C[C@@]3(CO3)C(=O)[C@H](C)[C@@H](O)[C@@H](C)[C@@H](C)OC(=O)[C@@H]2C)O[C@@H](C)[C@@H]1O` [Oleandomycin], the concentration for half-maximal inhibition (IC50) in [1] (setting [11]) was 8.19 ± 3.85 µM; in test [1] (setting [12]) it was more than 18 µM.
Regarding `CN(C)c1cc(CNCC(C)(C)C)c(O)c2c1C[C@H]1C[C@H]3[C@H](N(C)C)C(O)=C(C(N)=O)C(=O)[C@@]3(O)C(O)=C1C2=O` [Omadacycline], in [1], the “Fold differences, 3 day-assays” value was 7.3. The “Fold differences, 6 day-assays” value in test [1] is reported as 0.86. Moreover, the results for the half-inhibitory concentration (IC50) in test [1] (setting [11]) and in [1] (setting [12]) were 8.44 ± 0.618 µM and 0.248 ± 0.109 µM, respectively.
For `CON(C)Cc1ccc(O)c2c1C[C@H]1C[C@H]3[C@H](N(C)C)C(O)=C(C(N)=O)C(=O)[C@@]3(O)C(O)=C1C2=O` [Sarecycline, Sarecycline hydrochloride], the “Fold differences, 3 day-assays” value in [1] turned out to be 7.1. The “Fold differences, 6 day-assays” value in [1] turned out to be 0.26. The concentration for half-maximal inhibition (IC50) was determined as 13.4 ± 1.05 µM in test [1] (setting [9]) and 0.244 ± 0.136 µM in test [1] (setting [10]).
For the compound `CO[C@H]1C[C@H](O[C@H]2[C@H](C)[C@@H](O[C@@H]3O[C@H](C)C[C@H](N(C)C)[C@H]3OC(C)=O)[C@@H](C)C[C@@]3(CO3)C(=O)[C@H](C)[C@@H](OC(C)=O)[C@@H](C)[C@@H](C)OC(=O)[C@@H]2C)O[C@@H](C)[C@@H]1OC(C)=O` [Troleandomycin], the half-maximal inhibitory concentration (IC50) in [1] (setting [11]) and in test [1] (setting [12]) was more than 18 µM each time.
`CC[C@H](C)[C@H](NC(=O)[C@H]([C@@H](C)CC)N(C)C(C)=O)C(=O)N[C@H](C(=O)N[C@@H](CC(C)C)C(=O)[C@@]1(C)CO1)[C@@H](C)O` [epoxomicin]: the half-inhibitory concentration (IC50) in [5] (setting [13]) was determined as 0.0152 ± 0.0034 µM.
For `CN(C)c1ccc2nc3ccc(=[N+](C)C)cc-3sc2c1` [methylene blue, Methylene Blue], half-maximal inhibition in test [5] (setting [13]) (IC50) was put at 0.284 ± 0.035 µM.
